In US20260116920A1, “HUMAN TRANSFERRIN RECEPTOR BINDING PEPTIDE” (PEPTIDREAM INC., priority 2021, published 2026):
Like-named read-outs stand apart in the source and are kept apart here. Positions of bridges follow the written chain, without caps; N, C: chain ends. Non-standard residues stand in square brackets, D forms with d. Residues, ends and D or L forms follow the SMILES beside them. *: point of attachment. Trp(1-CH2COOH) = N[C@@H](Cc1cn(CC(=O)O)c2ccccc12)C(=O)O; Phe(3-COOH) = N[C@@H](Cc1cccc(C(=O)O)c1)C(=O)O; NH(CH2CH2O)8Me = COCCOCCOCCOCCOCCOCCOCCOCCN*; NMePhe(3-Cl) = CN[C@@H](Cc1cccc(Cl)c1)C(=O)O; 3Pal(6-NH2) = Nc1ccc(C[C@H](N)C(=O)O)cn1; NMeY = CN[C@@H](Cc1ccc(O)cc1)C(=O)O; 4Pal = N[C@@H](Cc1ccncc1)C(=O)O; PEG4 = NCCOCCOCCOCCOCCC(=O)O; Carboxymethyl = O=C(O)C*

Biological target: T1, human transferrin receptor (hTfR) (Homo sapiens, UniProt P02786)
T1 construct: made in house
Experiment: Evaluation of molecular interaction between transferrin receptor (hTfR) and peptide using surface plasmon resonance (SPR)
Format: binding
Method in brief: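 Recombinant human TfR dimer (0.5 μM) was captured on a Ni-charged NTA chip and amine-coupled with EDC/NHS, then ethanolamine-capped. Peptides at 5–100 nM in HEPES pH 8.0 buffer with 150 mM NaCl, 0.05% Tween 20, 0.1% BSA and 1.0% DMSO were run by single-cycle kinetics; KD came from least-squares curve fitting.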

[1] = KD class for binding to hTfR by SPR, peptide with the linker shown in the same line, 'low signal indicates no activity', read-out: SPR
[2] = surface plasmon resonance, binding to hTfR, KD class symbol, read-out: SPR (KD value)

T1 sequence (P02786 89-760 limits assumed): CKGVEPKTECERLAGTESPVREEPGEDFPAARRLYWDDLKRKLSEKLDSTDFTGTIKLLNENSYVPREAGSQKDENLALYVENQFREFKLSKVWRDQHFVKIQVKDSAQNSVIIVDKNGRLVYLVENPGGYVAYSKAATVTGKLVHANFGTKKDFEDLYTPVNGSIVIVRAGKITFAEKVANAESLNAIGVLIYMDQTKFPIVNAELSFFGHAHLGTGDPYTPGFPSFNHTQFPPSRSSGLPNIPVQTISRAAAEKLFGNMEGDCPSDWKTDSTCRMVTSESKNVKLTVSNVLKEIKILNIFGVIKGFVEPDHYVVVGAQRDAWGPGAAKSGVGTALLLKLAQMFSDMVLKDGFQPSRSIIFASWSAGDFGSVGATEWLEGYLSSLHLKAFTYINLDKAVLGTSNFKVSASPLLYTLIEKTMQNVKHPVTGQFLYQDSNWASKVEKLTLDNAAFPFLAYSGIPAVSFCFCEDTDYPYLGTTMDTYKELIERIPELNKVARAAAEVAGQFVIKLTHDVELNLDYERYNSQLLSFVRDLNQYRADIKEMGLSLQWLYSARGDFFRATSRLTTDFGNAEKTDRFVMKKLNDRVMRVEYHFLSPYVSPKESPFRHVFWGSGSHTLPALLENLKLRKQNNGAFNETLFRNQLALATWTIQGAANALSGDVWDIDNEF

| SMILES | Kd [1] | Kd [2] |
| --- | --- | --- |
| CC[C@H](C)[C@@H]1NC(=O)[C@H](Cc2ccc(OC)cc2)NC(=O)[C@H](Cc2ccc(O)cc2)NC(=O)[C@H](CC(N)=O)NC(=O)[C@H](Cc2c[nH]c3ccccc23)NC(=O)[C@H](C(C)C)NC(=O)[C@H](Cc2cccc(Cl)c2)N(C)C(=O)[C@H](C(C)C)NC(=O)[C@H](C)NC(=O)CSC[C@@H](C(=O)NCCOCCOCCOCCOCCC(N)=O)NC(=O)[C@H](Cc2ccc(O)cc2)N(C)C(=O)[C@H](Cc2ccncc2)NC(=O)[C@H](CCC(=O)NCCOCCOCCOCCOCCOCCOCCOCCOC)NC(=O)[C@H](CCCNC(=N)N)NC(=O)[C@H]([C@@H](C)CC)NC1=O [894_0366] ({CH2CO}-AV[NMePhe(3-Cl)]VWNYY(Me)IIRE(NH(CH2CH2O)8Me)[4Pal][NMeY]C[PEG4]-NH2; thioether N-15) | 1 to 100 nM |  |
| CC[C@H](C)[C@@H]1NC(=O)[C@H](Cc2ccc(OCC(=O)O)cc2)NC(=O)[C@H](Cc2ccc(N)nc2)NC(=O)[C@H](CC(N)=O)NC(=O)[C@H](Cc2cn(CC(=O)O)c3ccccc23)NC(=O)[C@H](C(C)C)NC(=O)[C@H](Cc2cccc(Cl)c2)N(C)C(=O)[C@H](C(C)C)NC(=O)[C@H](C)NC(=O)CSC[C@@H](C(=O)NCCOCCOCCOCCOCCC(N)=O)NC(=O)[C@H](Cc2ccc(O)cc2)N(C)C(=O)[C@H](Cc2ccncc2)NC(=O)[C@H](CCCNC(=N)N)NC(=O)[C@H](CCCNC(=N)N)NC(=O)[C@H]([C@@H](C)CC)NC1=O [compound 80] |  | 1 to 100 nM |
| CC[C@H](C)[C@@H]1NC(=O)[C@H](Cc2ccc(OCC(=O)O)cc2)NC(=O)[C@H](Cc2ccc(O)cc2)NC(=O)[C@H](CC(N)=O)NC(=O)[C@H](Cc2cn(CC(=O)O)c3ccccc23)NC(=O)[C@H](C(C)C)NC(=O)[C@H](Cc2cccc(Cl)c2)N(C)C(=O)[C@H](C(C)C)NC(=O)[C@H](C)NC(=O)CSC[C@@H](C(=O)NCCOCCOCCOCCOCCC(N)=O)NC(=O)[C@H](Cc2ccc(O)cc2)N(C)C(=O)[C@H](Cc2ccccc2)NC(=O)[C@H](CCCCNC(=O)OC)NC(=O)[C@H](CCCNC(=N)N)NC(=O)[C@H]([C@@H](C)CC)NC1=O [894_0379] | 1 to 100 nM |  |
| CC[C@H](C)[C@@H]1NC(=O)[C@H](Cc2ccc(OCC(=O)O)cc2)NC(=O)[C@H](Cc2ccc(O)cc2)NC(=O)[C@H](CC(N)=O)NC(=O)[C@H](Cc2cn(CC(=O)O)c3ccccc23)NC(=O)[C@H](C(C)C)NC(=O)[C@H](Cc2ccccc2)N(C)C(=O)[C@H](C(C)C)NC(=O)[C@H](C)NC(=O)CSC[C@@H](C(=O)NCCOCCOCCOCCOCCC(N)=O)NC(=O)[C@H](Cc2ccc(O)cc2)N(C)C(=O)[C@H](Cc2ccc(O)cc2)NC(=O)[C@H](CCCNC(=N)N)NC(=O)[C@H](CCCNC(=N)N)NC(=O)[C@H]([C@@H](C)CC)NC1=O [compound 46] |  | 1 to 100 nM |
| CC[C@H](C)[C@@H]1NC(=O)[C@H](Cc2ccc(OCC(=O)O)cc2)NC(=O)[C@H](Cc2ccc(O)cc2)NC(=O)[C@H](CC(N)=O)NC(=O)[C@H](Cc2c[nH]c3ccccc23)NC(=O)[C@H](C(C)C)NC(=O)[C@H](Cc2cccc(Cl)c2)N(C)C(=O)[C@H](C(C)C)NC(=O)[C@H](C)NC(=O)CSC[C@@H](C(=O)NCCOCCOCCOCCOCCC(N)=O)NC(=O)[C@H](Cc2ccc(O)cc2)N(C)C(=O)[C@H](Cc2ccccc2)NC(=O)[C@H](CCC(=O)NCCOCCOCCOCCOCCOCCOCCOCCOC)NC(=O)[C@H](CCCNC(=N)N)NC(=O)[C@H]([C@@H](C)CC)NC1=O [compound 89] |  | 1 to 100 nM |
| CC[C@H](C)[C@@H]1NC(=O)[C@H](Cc2ccc(OC)cc2)NC(=O)[C@H](Cc2ccc(O)cc2)NC(=O)[C@H](CC(N)=O)NC(=O)[C@H](Cc2c[nH]c3ccccc23)NC(=O)[C@H](C(C)C)NC(=O)[C@H](Cc2cccc(Cl)c2)N(C)C(=O)[C@H](C(C)C)NC(=O)[C@H](C)NC(=O)CSC[C@@H](C(=O)NCCOCCOCCOCCOCCC(N)=O)NC(=O)[C@H](Cc2ccc(O)cc2)N(C)C(=O)[C@H](Cc2ccc(O)cc2)NC(=O)[C@H](CCCNC(=N)N)NC(=O)[C@H](CCCCN)NC(=O)[C@H]([C@@H](C)CC)NC1=O [894_0292] | 1 to 100 nM |  |
| CC[C@H](C)[C@@H]1NC(=O)[C@H](Cc2ccc(OC)cc2)NC(=O)[C@H](Cc2ccc(O)cc2)NC(=O)[C@H](CC(N)=O)NC(=O)[C@H](Cc2c[nH]c3ccccc23)N(C)C(=O)[C@H](C(C)C)NC(=O)[C@H](Cc2cccc(Cl)c2)N(C)C(=O)[C@H](C(C)C)NC(=O)[C@H](C)NC(=O)CSC[C@@H](C(=O)NCCOCCOCCOCCOCCC(N)=O)NC(=O)[C@H](Cc2ccc(O)cc2)N(C)C(=O)[C@H](Cc2ccc(O)cc2)NC(=O)[C@H](CCCNC(=N)N)NC(=O)[C@H](CCCNC(=N)N)NC(=O)[C@H]([C@@H](C)CC)NC1=O [894_0293] | 1 to 100 nM |  |
| CC[C@H](C)[C@@H]1NC(=O)[C@H](Cc2ccc(OCC(=O)O)cc2)NC(=O)[C@H](Cc2ccc(N)nc2)NC(=O)[C@H](CC(N)=O)NC(=O)[C@H](Cc2cn(CC(=O)O)c3ccccc23)NC(=O)[C@H](C(C)C)NC(=O)[C@H](Cc2cccc(Cl)c2)N(C)C(=O)[C@H](C(C)C)NC(=O)[C@H](C)NC(=O)CSC[C@@H](C(=O)NCCOCCOCCOCCOCCC(N)=O)NC(=O)[C@H](Cc2ccc(O)cc2)N(C)C(=O)[C@H](Cc2cccc(C(=O)O)c2)NC(=O)[C@H](CCCNC(=N)N)NC(=O)[C@H](CCCNC(=N)N)NC(=O)[C@H]([C@@H](C)CC)NC1=O [compound 81] ({CH2CO}-AV[NMePhe(3-Cl)]V[Trp(1-CH2COOH)]N[3Pal(6-NH2)]Y(Carboxymethyl)IIRR[Phe(3-COOH)][NMeY]C[PEG4]-NH2; thioether N-15) |  | 1 to 100 nM |
